Reference: article PMC11564790 (Synthetic and Systems Biotechnology, 2024)
pKd: −log10 of the molar value.

What follows are molecules tested against MBP-fused YpsR (1-179); YpsR-MBP; heading also 'YpeR' (Yersinia pseudotuberculosis, UniProt Q669I5). Details: read-out: Dissociation constant.
MBP-fused YpsR (1-179); YpsR-MBP; heading also 'YpeR', sequence (Q669I5 1-179 limits assumed): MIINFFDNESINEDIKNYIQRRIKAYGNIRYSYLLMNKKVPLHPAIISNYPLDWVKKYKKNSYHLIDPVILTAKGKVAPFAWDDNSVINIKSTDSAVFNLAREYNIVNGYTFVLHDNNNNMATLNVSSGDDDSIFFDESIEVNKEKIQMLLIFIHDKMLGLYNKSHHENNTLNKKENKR
For CCCCCC(=O)CC(=O)N[C@H]1CCOC1=O [3OC8], the pKd was 4.62.
In the case of CCCCCCCCCCCC(=O)CC(=O)N[C@H]1CCOC1=O [3OC14], the pKd was 4.74.
In the case of CCCCCCCCCC(=O)CC(=O)N[C@H]1CCOC1=O [3OC12], the pKd was 3.89.
CCCCCCCC(=O)CC(=O)N[C@H]1CCOC1=O [3OC10] gave a pKd of 3.84.
With CCCCCCCCCC(=O)N[C@H]1CCOC1=O [C10] the pKd was 4.67.
CCCCCCCC(=O)N[C@H]1CCOC1=O [C8] showed a pKd of 4.81.
CCCCCC(=O)N[C@H]1CCOC1=O [C6] gave a pKd of 5.18.
Molecule CCCC(=O)CC(=O)N[C@H]1CCOC1=O [3OC6] has a pKd of 5.89.
